Reference: ChEMBL document CHEMBL3734758, “Protective effects of 5,7,4'-trihydroxy-6,3'dimethoxy-flavone 5-O-α-l-rhamnopyranoside, isolated from Annona squamosa leaves in thyrotoxicosis and in hepatic lipid peroxidation in rats” (Bioorg Med Chem Lett, 2015)
Activity calls are given as the source filed them. The rule behind the calls is not given here.

Tests used:
[1] = test system: Rattus norvegicus; experiment: Inhibition of L-T4-induced decrease in triglyceride level in albino Wistar rat at 5 mg/kg/day, po cotreated with 0.5 mg/kg L-T4 for 15 days (reference value: 42.15 +/- 3.23 mg/dl); format: functional
[2] = test system: Rattus norvegicus; experiment: Toxicity in albino Wistar rat assessed as very low-density lipoprotein cholesterol level at 5 mg/kg/day, po for 15 days (reference value: 14.85 +/- 2.43 mg/dl); format: organism-based; details: in vivo, 360 h
[3] = test system: Rattus norvegicus; experiment: Inhibition of L-T4-induced decrease in high-density lipoprotein cholesterol in albino Wistar rat at 5 mg/kg/day, po cotreated with 0.5 mg/kg L-T4 for 15 days (reference value: 20.18 +/- 2.32 mg/dl); format: functional
[4] = test system: Rattus norvegicus; experiment: Inhibition of L-T4-induced increase in T4 level in albino Wistar rat at 2.5 mg/kg/day, po cotreated with 0.5 mg/kg L-T4 for 15 days by RIA (reference value: 112.86 +/- 4.77 ng/ml); format: functional
[5] = test system: Rattus norvegicus; experiment: Inhibition of L-T4-induced increase in T3 level in albino Wistar rat at 5 mg/kg/day, po cotreated with 0.5 mg/kg/day L-T4 for 15 days by RIA (reference value: 1.55 +/- 0.131 ng/ml); format: functional
[6] = test system: Rattus norvegicus; experiment: Inhibition of L-T4-induced increase in T3 level in albino Wistar rat at 2.5 mg/kg/day, po cotreated with 0.5 mg/kg L-T4 for 15 days by RIA (reference value: 1.55 +/- 0.131 ng/ml); format: functional
[7] = test system: Rattus norvegicus; experiment: Inhibition of L-T4-induced increase in hepatic 5-monodeiodinase-l activity in albino Wistar rat assessed as T3 formation at 5 mg/kg/day, po cotreated with 0.5 mg/kg L-T4 for 15 days by RIA; format: functional, organism-based
[8] = test system: Rattus norvegicus; experiment: Inhibition of L-T4-induced increase in lipid peroxidation in albino Wistar rat assessed as malondialdehyde formed per mg of protein at 5 mg/kg/day, po cotreated with 0.5 mg/kg L-T4 for 15 days (reference value: 0.977 +/- 0.035 nM/hr); format: functional
[9] = test system: Rattus norvegicus; experiment: Inhibition of L-T4-induced decrease in low-density lipoprotein cholesterol in albino Wistar rat at 5 mg/kg/day, po cotreated with 0.5 mg/kg L-T4 for 15 days (reference value: 31.68 +/- 4.25 mg/dl); format: functional
[10] = test system: Rattus norvegicus; experiment: Inhibition of L-T4-induced increase in T3 level in albino Wistar rat at 10 mg/kg/day, po cotreated with 0.5 mg/kg L-T4 for 15 days by RIA (reference value: 1.55 +/- 0.131 ng/ml); format: functional
[11] = test system: Rattus norvegicus; experiment: Toxicity in albino Wistar rat assessed as high-density lipoprotein cholesterol level at 5 mg/kg/day, po for 15 days (reference value: 45.52 +/- 3.08 mg/dl); format: organism-based; details: in vivo, 360 h
[12] = test system: Rattus norvegicus; experiment: Toxicity in albino Wistar rat assessed as total cholesterol level at 5 mg/kg/day, po for 15 days (reference value: 114.97 +/- 4.76 mg/dl); format: organism-based; details: in vivo, 360 h
[13] = test system: Rattus norvegicus; experiment: Inhibition of L-T4-induced decrease in GSH level in albino Wistar rat liver at 5 mg/kg/day, po cotreated with 0.5 mg/kg L-T4 for 15 days; format: functional, organism-based
[14] = test system: Rattus norvegicus; experiment: Inhibition of L-T4-induced increase in lipid peroxidation in albino Wistar rat assessed as malondialdehyde formed per mg of protein at 10 mg/kg/day, po cotreated with 0.5 mg/kg L-T4 for 15 days (reference value: 0.977 +/- 0.035 nM/hr); format: functional
[15] = test system: Rattus norvegicus; experiment: Inhibition of L-T4-induced increase in lipid peroxidation in albino Wistar rat assessed as malondialdehyde formed per mg of protein at 2.5 mg/kg/day, po cotreated with 0.5 mg/kg L-T4 for 15 days (reference value: 0.977 +/- 0.035 nM/hr); format: functional
[16] = test system: Rattus norvegicus; experiment: Inhibition of L-T4-induced decrease in very low-density lipoprotein cholesterol in albino Wistar rat at 5 mg/kg/day, po cotreated with 0.5 mg/kg L-T4 for 15 days (reference value: 8.65 +/- 2.76 mg/dl); format: functional
[17] = test system: Rattus norvegicus; experiment: Inhibition of L-T4-induced decrease in total cholesterol level in albino Wistar rat at 5 mg/kg/day, po cotreated with 0.5 mg/kg L-T4 for 15 days (reference value: 58.77 +/- 3.95 mg/dl); format: functional
[18] = test system: Rattus norvegicus; experiment: Inhibition of L-T4-induced increase in T4 level in albino Wistar rat at 5 mg/kg/day, po cotreated with 0.5 mg/kg L-T4 for 15 days by RIA (reference value: 112.86 +/- 4.77 ng/ml); format: functional
[19] = test system: Rattus norvegicus; experiment: Inhibition of L-T4-induced increase in T4 level in albino Wistar rat at 10 mg/kg/day, po cotreated with 0.5 mg/kg L-T4 for 15 days by RIA (reference value: 112.86 +/- 4.77 ng/ml); format: functional
[20] = test system: Rattus norvegicus; experiment: Inhibition of L-T4-induced decrease in catalase activity in albino Wistar rat liver assessed as H2O2 decomposition at 5 mg/kg/day, po cotreated with 0.5 mg/kg L-T4 for 15 days by spectrophotmetry; format: functional, organism-based
[21] = test system: Rattus norvegicus; experiment: Toxicity in albino Wistar rat assessed as triglyceride level at 5 mg/kg/day, po for 15 days (reference value: 73.33 +/- 3.1 mg/dl); format: organism-based; details: in vivo, 360 h
[22] = test system: Rattus norvegicus; experiment: Inhibition of L-T4-induced loss of body weight in albino Wistar rat assessed as increase in body weight at 5 mg/kg/day, po cotreated with 0.5 mg/kg L-T4 for 15 days […]; format: functional, organism-based
[23] = test system: Rattus norvegicus; experiment: Inhibition of L-T4-induced decrease in SOD activity in albino Wistar rat liver at 5 mg/kg/day, po cotreated with 0.5 mg/kg L-T4 for 15 days; format: functional, organism-based
[24] = test system: Rattus norvegicus; experiment: Inhibition of L-T4-induced increase in Glucose-6-phosphate activity in albino Wistar rat at 5 mg/kg/day, po cotreated with 0.5 mg/kg L-T4 for 15 days […]; format: functional, organism-based
[25] = test system: Rattus norvegicus; experiment: Toxicity in albino Wistar rat assessed as low-density lipoprotein cholesterol level at 5 mg/kg/day, po for 15 days (reference value: 83.85 +/- 2.96 mg/dl); format: organism-based; details: in vivo, 360 h

COc1cc(-c2cc(=O)c3c(O[C@@H]4O[C@@H](C)[C@H](O)[C@@H](O)[C@H]4O)c(OC)c(O)cc3o2)ccc1O
Activity [1]: 68.31 mg/dL | Activity [2]: 12.91 mg/dL | Activity [3]: 40.95 mg/dL | Activity [4]: 98.6 ng/mL | Activity [5]: 0.43 ng/mL | Activity [6]: 1.01 ng/mL | inhibition [7]: Active | Activity [8]: 0.239 nM/h | Activity [9]: 72.42 mg/dL | Activity [10]: 1.39 ng/mL | Activity [11]: 48.97 mg/dL | Activity [12]: 96.22 mg/dL | inhibition [13]: Active | Activity [14]: 0.512 nM/h | Activity [15]: 0.619 nM/h | Activity [16]: 14.09 mg/dL | Activity [17]: 98.14 mg/dL | Activity [18]: 56.7 ng/mL | Activity [19]: 102.45 ng/mL | inhibition [20]: Active | Activity [21]: 61.1 mg/dL | Activity [22]: Active | inhibition [23]: Active | inhibition [24]: Active | Activity [25]: 60.16 mg/dL
